{"source": "ChEMBL document CHEMBL1201862", "about": "“PubChem BioAssay data set” (2004)", "key": {"Phospholipase A2": {"target": "Phospholipase A2 (Homo sapiens, UniProt P04054)", "sequence (P04054 whole entry)": "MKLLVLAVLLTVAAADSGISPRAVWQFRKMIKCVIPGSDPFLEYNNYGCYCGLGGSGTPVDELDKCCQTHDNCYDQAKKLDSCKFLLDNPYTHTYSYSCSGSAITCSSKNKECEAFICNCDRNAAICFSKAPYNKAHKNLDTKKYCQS", "assay_type": "functional"}, "Cysteine protease ATG4B": {"target": "T1, Cysteine protease ATG4B (Homo sapiens, UniProt Q9Y4P1)", "T1 sequence (Q9Y4P1 whole entry)": "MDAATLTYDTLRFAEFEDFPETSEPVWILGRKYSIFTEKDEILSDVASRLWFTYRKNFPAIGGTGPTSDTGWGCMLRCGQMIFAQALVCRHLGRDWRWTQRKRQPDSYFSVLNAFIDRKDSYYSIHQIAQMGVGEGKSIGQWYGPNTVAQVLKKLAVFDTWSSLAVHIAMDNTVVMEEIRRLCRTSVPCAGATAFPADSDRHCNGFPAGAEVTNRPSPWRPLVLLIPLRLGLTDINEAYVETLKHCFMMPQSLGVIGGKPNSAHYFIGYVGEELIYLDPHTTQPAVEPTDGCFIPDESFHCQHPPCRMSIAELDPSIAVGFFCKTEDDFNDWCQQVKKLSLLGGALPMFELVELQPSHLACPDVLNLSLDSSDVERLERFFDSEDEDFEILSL", "assay_type": "functional"}, "cells": {"assay": "cells", "assay_type": "functional"}, "[1]": {"assay": "NIH-3T3 fibroblast cytotoxicity, dose response, cytotoxicity control, cell-based, fluorescence, Alamar Blue, secondary assay (AID 2327);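 further: NIH-3T3 mouse fibroblasts cultured with fluconazole at 8 µg/mL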", "assay_type": "functional"}, "[2]": {"assay": "fluconazole-exposed Candida albicans growth modulators – fluorescence, retest, confirmation (AID 2467)", "assay_type": "functional, cell-based"}, "Fatty acid synthase [3]": {"target": "T2, Fatty acid synthase (Homo sapiens, UniProt P49327)", "T2 sequence (P49327 whole entry)": "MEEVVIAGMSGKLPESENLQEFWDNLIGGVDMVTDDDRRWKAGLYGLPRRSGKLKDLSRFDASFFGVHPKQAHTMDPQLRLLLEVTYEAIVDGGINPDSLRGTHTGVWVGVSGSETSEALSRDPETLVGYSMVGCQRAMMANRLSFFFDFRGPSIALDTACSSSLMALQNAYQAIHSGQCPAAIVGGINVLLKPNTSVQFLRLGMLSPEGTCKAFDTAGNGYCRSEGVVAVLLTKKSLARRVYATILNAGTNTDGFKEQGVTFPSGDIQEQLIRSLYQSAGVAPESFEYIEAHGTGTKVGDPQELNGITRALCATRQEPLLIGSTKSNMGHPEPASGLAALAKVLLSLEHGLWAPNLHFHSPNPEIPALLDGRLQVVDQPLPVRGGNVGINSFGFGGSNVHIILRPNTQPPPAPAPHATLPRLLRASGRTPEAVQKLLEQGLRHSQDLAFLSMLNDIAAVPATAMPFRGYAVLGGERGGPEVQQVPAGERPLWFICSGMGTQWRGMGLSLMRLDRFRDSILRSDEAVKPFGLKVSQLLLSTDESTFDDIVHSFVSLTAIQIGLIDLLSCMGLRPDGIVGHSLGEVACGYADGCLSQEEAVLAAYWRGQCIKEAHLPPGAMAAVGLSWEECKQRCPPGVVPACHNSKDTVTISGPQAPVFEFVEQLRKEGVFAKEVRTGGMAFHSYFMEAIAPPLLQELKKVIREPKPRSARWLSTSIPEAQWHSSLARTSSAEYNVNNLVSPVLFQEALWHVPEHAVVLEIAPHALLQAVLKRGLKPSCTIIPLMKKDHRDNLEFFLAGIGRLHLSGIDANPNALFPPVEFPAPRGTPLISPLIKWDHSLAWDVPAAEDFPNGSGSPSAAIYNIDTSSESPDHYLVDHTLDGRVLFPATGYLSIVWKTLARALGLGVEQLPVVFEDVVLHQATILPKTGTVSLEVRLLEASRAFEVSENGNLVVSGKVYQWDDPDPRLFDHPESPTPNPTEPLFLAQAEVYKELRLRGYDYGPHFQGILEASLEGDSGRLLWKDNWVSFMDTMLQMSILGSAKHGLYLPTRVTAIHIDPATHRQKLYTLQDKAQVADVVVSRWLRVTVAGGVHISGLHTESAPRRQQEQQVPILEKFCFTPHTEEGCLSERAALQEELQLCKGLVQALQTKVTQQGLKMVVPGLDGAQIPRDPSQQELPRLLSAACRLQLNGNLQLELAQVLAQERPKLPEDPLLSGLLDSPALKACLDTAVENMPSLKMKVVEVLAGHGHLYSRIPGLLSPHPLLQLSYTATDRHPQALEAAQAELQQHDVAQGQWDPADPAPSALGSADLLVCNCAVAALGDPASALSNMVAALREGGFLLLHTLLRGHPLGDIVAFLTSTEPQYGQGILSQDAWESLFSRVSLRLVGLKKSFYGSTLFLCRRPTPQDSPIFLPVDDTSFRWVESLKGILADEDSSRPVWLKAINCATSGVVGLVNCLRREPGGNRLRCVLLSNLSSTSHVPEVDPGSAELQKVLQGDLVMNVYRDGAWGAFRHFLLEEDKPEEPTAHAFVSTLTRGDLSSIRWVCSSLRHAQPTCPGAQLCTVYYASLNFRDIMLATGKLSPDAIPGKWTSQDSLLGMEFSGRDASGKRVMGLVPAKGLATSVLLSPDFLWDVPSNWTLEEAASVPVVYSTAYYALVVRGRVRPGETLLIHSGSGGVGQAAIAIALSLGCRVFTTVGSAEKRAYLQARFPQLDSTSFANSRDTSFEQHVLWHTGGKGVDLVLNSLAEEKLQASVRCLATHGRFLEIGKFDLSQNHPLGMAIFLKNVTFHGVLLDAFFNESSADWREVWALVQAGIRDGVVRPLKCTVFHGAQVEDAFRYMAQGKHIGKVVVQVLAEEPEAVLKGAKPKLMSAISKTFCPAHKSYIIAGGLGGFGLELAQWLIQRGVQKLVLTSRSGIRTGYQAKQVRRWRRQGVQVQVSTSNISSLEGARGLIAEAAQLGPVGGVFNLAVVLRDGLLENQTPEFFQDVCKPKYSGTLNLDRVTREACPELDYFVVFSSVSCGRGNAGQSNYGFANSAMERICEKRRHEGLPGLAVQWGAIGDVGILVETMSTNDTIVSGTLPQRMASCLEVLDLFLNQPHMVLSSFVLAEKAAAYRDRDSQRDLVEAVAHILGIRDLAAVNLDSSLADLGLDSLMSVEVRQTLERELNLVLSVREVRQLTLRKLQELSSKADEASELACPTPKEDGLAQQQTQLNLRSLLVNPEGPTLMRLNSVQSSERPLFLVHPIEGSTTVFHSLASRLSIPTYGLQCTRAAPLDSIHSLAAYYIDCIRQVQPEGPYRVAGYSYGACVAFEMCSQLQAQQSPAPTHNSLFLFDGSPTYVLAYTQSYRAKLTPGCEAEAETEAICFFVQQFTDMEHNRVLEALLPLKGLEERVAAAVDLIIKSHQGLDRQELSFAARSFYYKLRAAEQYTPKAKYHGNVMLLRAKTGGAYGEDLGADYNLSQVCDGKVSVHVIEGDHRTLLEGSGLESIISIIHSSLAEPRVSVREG", "assay": "inhibition of human FAS-TE enzyme activity – biochemical, endpoint fluorescence intensity, uHTS hits, dose response (AID 624327);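 further: fluorescence from hydrolysis of an O-methyl fluorescein acyl ester substrate by the enzyme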", "assay_type": "functional"}, "Fatty acid synthase [4]": {"target": "T2, Fatty acid synthase", "assay": "inhibition of human FAS-TE enzyme activity – biochemical, kinetic fluorescence intensity, dose response (AID 624326);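 further: rate of fluorescence rise from hydrolysis of a fluorogenic O-methyl fluorescein ester substrate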", "assay_type": "functional"}, "Cytochrome P450 2C9": {"target": "Cytochrome P450 2C9 (Homo sapiens, UniProt P11712)", "sequence (P11712 whole entry)": "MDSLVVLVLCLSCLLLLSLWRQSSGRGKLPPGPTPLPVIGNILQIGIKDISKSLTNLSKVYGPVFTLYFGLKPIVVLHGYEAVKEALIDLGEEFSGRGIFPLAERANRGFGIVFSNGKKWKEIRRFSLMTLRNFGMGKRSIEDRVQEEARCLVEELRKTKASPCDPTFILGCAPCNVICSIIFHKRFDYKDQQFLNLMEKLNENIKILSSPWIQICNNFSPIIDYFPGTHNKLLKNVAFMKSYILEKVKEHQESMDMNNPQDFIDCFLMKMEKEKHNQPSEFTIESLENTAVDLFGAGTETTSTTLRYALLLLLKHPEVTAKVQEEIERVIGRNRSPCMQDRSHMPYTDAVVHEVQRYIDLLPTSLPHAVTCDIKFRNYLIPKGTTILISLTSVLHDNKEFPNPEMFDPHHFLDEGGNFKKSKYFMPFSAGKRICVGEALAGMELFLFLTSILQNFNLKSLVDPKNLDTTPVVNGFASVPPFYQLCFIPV"}, "Cytochrome P450 2C19": {"target": "Cytochrome P450 2C19 (Homo sapiens, UniProt P33261)", "sequence (P33261 whole entry)": "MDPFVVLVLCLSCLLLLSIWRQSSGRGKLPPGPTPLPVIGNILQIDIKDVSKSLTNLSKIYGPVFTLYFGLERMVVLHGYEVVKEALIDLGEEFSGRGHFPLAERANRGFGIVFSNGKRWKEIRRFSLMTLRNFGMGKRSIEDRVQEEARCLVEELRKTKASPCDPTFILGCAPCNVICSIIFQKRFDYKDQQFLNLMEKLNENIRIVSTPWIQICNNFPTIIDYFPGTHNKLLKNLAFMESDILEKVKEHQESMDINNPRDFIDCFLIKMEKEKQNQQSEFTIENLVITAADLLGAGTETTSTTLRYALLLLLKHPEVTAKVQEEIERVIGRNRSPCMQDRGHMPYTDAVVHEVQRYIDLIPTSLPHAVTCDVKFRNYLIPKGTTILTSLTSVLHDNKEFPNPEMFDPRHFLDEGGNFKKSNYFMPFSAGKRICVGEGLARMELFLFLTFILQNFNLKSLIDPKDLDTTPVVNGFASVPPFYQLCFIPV", "assay": "Cytochrome panel assay with activity outcomes. Panel member name: p450-cyp2c19 Compounds with AC50 equal or less than 10 uM are considered active", "assay_type": "functional"}, "[5]": {"target": "T3, Carboxy-terminal domain RNA polymerase II polypeptide A small phosphatase 1 (Homo sapiens, UniProt Q9GZU7)", "T3 sequence (Q9GZU7 whole entry)": "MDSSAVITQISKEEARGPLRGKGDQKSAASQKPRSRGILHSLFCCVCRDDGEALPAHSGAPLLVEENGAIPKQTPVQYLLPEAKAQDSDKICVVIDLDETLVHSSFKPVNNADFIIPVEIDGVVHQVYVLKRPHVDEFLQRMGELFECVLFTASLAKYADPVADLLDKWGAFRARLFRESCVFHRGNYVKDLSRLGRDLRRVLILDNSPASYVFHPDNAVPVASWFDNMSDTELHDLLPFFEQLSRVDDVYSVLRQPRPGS", "assay": "CTDSP1 inhibitors, concentration-response, biochemical, absorbance readout, ultra-high-throughput screen actives (AID 540297)", "assay_type": "functional"}, "[6]": {"target": "G-protein coupled receptor 55 (Homo sapiens, UniProt Q9Y2T6)", "sequence (Q9Y2T6 whole entry)": "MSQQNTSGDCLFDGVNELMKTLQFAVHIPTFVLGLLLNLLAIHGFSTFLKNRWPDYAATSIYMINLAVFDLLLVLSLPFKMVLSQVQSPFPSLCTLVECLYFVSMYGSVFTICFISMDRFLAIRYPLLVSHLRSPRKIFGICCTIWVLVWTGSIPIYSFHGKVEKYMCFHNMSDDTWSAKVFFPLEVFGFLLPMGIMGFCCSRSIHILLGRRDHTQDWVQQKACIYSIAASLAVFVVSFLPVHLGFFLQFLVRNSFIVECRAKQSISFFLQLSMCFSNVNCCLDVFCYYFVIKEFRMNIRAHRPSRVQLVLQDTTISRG", "assay": "inhibition of LPI-stimulated GPR55 beta-arrestin translocation – imaging, U2OS, beta-arrestin-GFP, LPI agonist, primary screen (AID 2013);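 further: antagonist potency measured as reduced agonist-driven arrestin aggregation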", "assay_type": "functional"}, "[7]": {"assay": "Dd2 malaria parasite growth inhibition potency – SYBR Green, dry powder samples, dose response (AID 1159566);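 further: potency for growth inhibition with lower SYBR green DNA signal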", "assay_type": "functional, cell-based"}, "[8]": {"assay": "P. falciparum Dd2 growth inhibitors, dose response, SYBR Green, cherry-picked samples (AID 1159567)", "assay_type": "functional, cell-based"}, "[9]": {"assay": "growth inhibition of yeast DHODH-expressing 3D7 parasites – SYBR Green, dry powder samples, dose response (AID 1159570);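 further: parasite growth measured after 72 hours of compound exposure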", "assay_type": "functional, cell-based"}, "[10]": {"assay": "growth inhibition of PfATP4-mutant resistant parasites – NITD609-resistant line, SYBR Green, dry powder, dose response (AID 1159571);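 further: parasites synchronized at ring stage by sorbitol before testing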", "assay_type": "functional, cell-based"}, "[11]": {"target": "T4, Sentrin-specific protease 8 (Homo sapiens, UniProt Q96LD8)", "T4 sequence (Q96LD8 whole entry)": "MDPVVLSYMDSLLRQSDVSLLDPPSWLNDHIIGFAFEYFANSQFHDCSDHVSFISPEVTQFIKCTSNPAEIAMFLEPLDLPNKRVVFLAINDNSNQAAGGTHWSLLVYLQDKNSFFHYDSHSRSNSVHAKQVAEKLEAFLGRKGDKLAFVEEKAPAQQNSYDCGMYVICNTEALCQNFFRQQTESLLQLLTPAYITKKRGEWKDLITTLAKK", "assay_type": "functional"}, "[12]": {"target": "T4, Sentrin-specific protease 8", "assay_type": "functional", "remark": "listed apart in the source"}, "[13]": {"assay": "HIV-1 AD8 envelope cell-cell fusion blockers – cherry-pick, dose response (AID 652062);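 further: luciferase signal from cell-cell fusion driven by HIV-1 clade B AD8 Env; potency is for inhibitors of fusion seen as a drop in luminescence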", "assay_type": "functional, cell-based"}, "[14]": {"assay": "blockers of HIV-1 envelope-mediated cell-cell fusion – cherry-pick, dose response (AID 652057)", "assay_type": "functional, cell-based"}, "[15]": {"assay": "blockers of HIV-1 ZM109 envelope-driven cell-cell fusion – HeLa effector, CEM target cells, luciferase, cherry-pick, dose response (AID 652058)", "assay_type": "functional, cell-based"}, "[16]": {"target": "Heat shock protein HSP 90-alpha (Homo sapiens, UniProt P07900)", "assay_type": "functional, organism-based"}}, "note": "The source made the active and inactive calls.", "data": [{"smiles": "COc1cc(OC)cc(-c2nc3ccccc3c(=O)n2OC(=O)c2ccc(C)c(C)c2)c1", "values": [{"measurement": "IC50", "setting": "Phospholipase A2", "result": "5.9 µM (active)"}, {"measurement": "IC50", "setting": "Cysteine protease ATG4B", "result": "4.38 µM (active)"}]}, {"smiles": "CCn1c(=O)c(C(=O)Nc2ncccc2C)c(O)c2ccccc21", "values": [{"measurement": "IC50", "setting": "cells", "result": "45.2 µM (active)"}, {"measurement": "EC50", "setting": "[1]", "result": "> 150 µM (inconclusive)"}, {"measurement": "EC50", "setting": "[2]", "result": "0.119 µM (active)"}]}, {"smiles": "CC(=O)c1ccc(N(C(=O)c2ccco2)C(C(=O)NC2CCCC2)c2ccc(N3CCOCC3)cc2)cc1", "note": "(stereo not drawn)", "values": [{"measurement": "IC50", "setting": "Fatty acid synthase [3]", "result": "15.5 µM (active)"}, {"measurement": "IC50", "setting": "Fatty acid synthase [4]", "result": "12.5 µM (active)"}]}, {"smiles": "CN(C)CCNCCN", "values": [{"measurement": "AC50", "setting": "Cytochrome P450 2C9", "result": "inconclusive"}, {"measurement": "AC50", "setting": "Cytochrome P450 2C19", "result": "inconclusive"}]}, {"smiles": "CCOc1ccccc1NC(=O)Cn1cnc2c(nnn2-c2cccc(OC)c2)c1=O", "values": [{"measurement": "IC50", "setting": "[5]", "result": "10.1 µM (active)"}]}, {"smiles": "CCc1ccc(NS(=O)(=O)c2cc3c(cc2C)n(C)c(=O)c(=O)n3C)cc1", "values": [{"measurement": "IC50", "setting": "Fatty acid synthase [3]", "result": "2.42 µM (active)"}, {"measurement": "IC50", "setting": "Fatty acid synthase [4]", "result": "2.83 µM (active)"}, {"measurement": "IC50", "setting": "[6]", "result": "3.39 µM (active)"}]}, {"smiles": "CCCNC(=O)c1cc2c(c(-c3cccc(-c4cc5ccccc5o4)c3)n1)[C@H](CCO)N(C(=O)NC(C)C)C2", "values": [{"measurement": "AC50", "setting": "[7]", "result": "1.75 µM (active)"}, {"measurement": "AC50", "setting": "[8]", "result": "1.87 µM (active)"}, {"measurement": "AC50", "setting": "[9]", "result": "2.97 µM (active)"}, {"measurement": "AC50", "setting": "[10]", "result": "2.39 µM (active)"}]}, {"smiles": "O=C(c1cccc(S(=O)(=O)N2CCCC2)c1)c1cccc(S(=O)(=O)N2CCCC2)c1", "values": [{"measurement": "IC50", "setting": "Fatty acid synthase [3]", "result": "12.1 µM (active)"}, {"measurement": "IC50", "setting": "Fatty acid synthase [4]", "result": "6.54 µM (active)"}]}, {"smiles": "Cc1ccc([N+](=O)[O-])cc1NC(=O)CCCOc1ccccc1", "values": [{"measurement": "IC50", "setting": "Fatty acid synthase [3]", "result": "10.1 µM (active)"}, {"measurement": "IC50", "setting": "Fatty acid synthase [4]", "result": "27.3 µM (inactive)"}]}, {"smiles": "Cc1ccc(NCCC(=O)c2cccs2)cc1Cl", "values": [{"measurement": "IC50", "setting": "cells", "result": "28.8 µM (active)"}]}, {"smiles": "COc1ccc(/C=C2\\SC(=S)N(CCC(=O)Nc3cccc(C(=O)O)c3)C2=O)cc1", "values": [{"measurement": "IC50", "setting": "[5]", "result": "6.38 µM (active)"}]}, {"smiles": "Cc1ccc2[nH]c(CCc3nc4cc(C)ccc4[nH]3)nc2c1", "values": [{"measurement": "IC50", "setting": "cells", "result": "35.3 µM (active)"}]}, {"smiles": "COc1ccc(N2C(=O)Cc3ccccc3C2=O)cc1", "values": [{"measurement": "IC50", "setting": "[11]", "result": "5.08 µM (active)"}, {"measurement": "IC50", "setting": "[12]", "result": "> 100 µM (inactive)"}]}, {"smiles": "COc1ccc(NC(=O)NNc2cc(N3CCOCC3)nc(N3CCOCC3)n2)cc1", "values": [{"measurement": "IC50", "setting": "[11]", "result": "9.34 µM (active)"}, {"measurement": "IC50", "setting": "[12]", "result": "7.36 µM (active)"}]}, {"smiles": "C[C@H]1CN([C@@H](C)CO)C(=O)Cc2cc(NC(=O)C3CCCCC3)ccc2O[C@H]1CN(C)S(=O)(=O)c1ccc(Cl)cc1", "values": [{"measurement": "AC50", "setting": "[13]", "result": "22.6 µM (active)"}, {"measurement": "AC50", "setting": "[14]", "result": "8.97 µM (active)"}, {"measurement": "AC50", "setting": "[15]", "result": "6.75 µM (active)"}]}, {"smiles": "Cc1ccccc1S(=O)(=O)N(C)C[C@@H]1OCc2ccccc2-c2c(n(C)c3ccccc23)C(=O)N([C@@H](C)CO)C[C@@H]1C", "values": [{"measurement": "AC50", "setting": "[7]", "result": "0.659 µM (active)"}, {"measurement": "AC50", "setting": "[8]", "result": "1.63 µM (active)"}, {"measurement": "AC50", "setting": "[9]", "result": "1.02 µM (active)"}, {"measurement": "AC50", "setting": "[10]", "result": "0.812 µM (active)"}]}, {"smiles": "CC(C)(C)OC(=O)N1Cc2ccccc2C[C@H]1C(=O)O", "values": [{"measurement": "IC50", "setting": "[11]", "result": "12.8 µM (active)"}, {"measurement": "IC50", "setting": "[12]", "result": "> 100 µM (inactive)"}]}, {"smiles": "CC(C)(C)C(O)C(Cc1ccccc1Cl)n1cncn1", "note": "(stereo not drawn)", "values": [{"measurement": "AC50", "setting": "[16]", "result": "< 0.195 µM (active)"}]}]}
